In patent US20260078454A1, “MULTIPLE ANTIBIOTIC BACTERIAL RESPONSE” (priority 2022, published 2026):

Assays:
Acinetobacter baumannii = assay type: cell-based; settings: for differentially expressed transcripts in common between amikacin and gentamicin: 3.5 hours of exposure; for number of differentially expressed transcripts: pan-susceptible strain, MIC breakpoint, vs no-antibiotic control
Procedure: A pan-susceptible Acinetobacter baumannii was cultured and exposed to each of the nine conditions (including a no-antibiotic control) above as a single-exposure condition, meaning only one antibiotic per sample, no combination of drugs. Antibiotics were dosed at the resistance break point concentration (MIC breakpoint) for each compound according to the 2023 CLSI M100 guidelines. Antibiotic-treated and control cultures were maintained for 0.5 hours, 1.5 hours, 2.5 hours, and 3.5 hours and subsequently harvested to conduct RNA-seq, as discussed above in Example 3. Multiple replicates of this experimental set-up were performed to assess variance of the transcriptional response.
Cultures at the appropriate OD595 were transferred to a 37° C. incubator until the OD595 was between 0.9-1.4. The culture was distributed into individual treatment tubes containing antibiotics (or not for the control condition) and incubated at 37° C. for the specified exposure times (0.5, 1.5, 2.5, 3.5 hrs). At each timepoint, an aliquot of each of the treated and control culture conditions was removed and nucleic acid was extracted on the bioMérieux EMAG platform. […] The nucleic acid extracts were then treated with DNAse to remove all genomic DNA and extracted a second time, resulting in a pure RNA sample for each condition. These RNA samples were sent to the High-Throughput Genomics Core at the Huntsman Cancer Institute at the University of Utah for RNA-sequencing on the Illumina NovaSeq 6000 platform. A total of five biological replicates were made, which would result in 180 RNA-seq samples (36*5), although due to some instrument difficulties an actual total of 161 samples were sent to the sequencing core lab.
Differential expression analysis of RNA-seq read data is as follows. Read data was adapter and quality trimmed using bbduk (bbmap_38.86). Adapter and quality trimmed reads (fastq) were mapped to an Acinetobacter baumannii genome using Kallisto (Kallisto v0.48.0) to generate read counts for each annotated transcript in the genome. Read count data (all conditions) were normalized using Sleuth (0.30.1) and differential expression tests conducted between each independent antibiotic exposure condition and the no-antibiotic time matched control using the lrt test within Sleuth using a qvalue significance cutoff of 0.05 to determine differential expression. Lists of differentially expressed transcripts for each antibiotic and each timepoint were generated and aggregated according to the MOA classes (see prior) to determine if there was significant overlap in the transcriptional response to each MOA class of antibiotics.

Pseudomonas aeruginosa = test: RNA-seq differential expression after single and combined antibiotic exposure; assay type: cell-based; settings: pan susceptible strain; CLSI resistance break point concentration; 60 minutes; regardless of whether the other two antibiotics were present
Procedure: RNA-sequencing (“RNA-seq”) was conducted using two strains of Pseudomonas aeruginosa: one a resistant strain and the second a pan susceptible strain. The strains were cultured to an optical density of 1.0, or approximately 1.5×10^9 genomic copies/mL (measured using digital PCR). The culture was then aliquoted into four independent culture tubes, three of which contained one single antibiotic and the fourth was a no-antibiotic control. Once mixed with antibiotics, where each antibiotic was dosed at its CLSI resistance break point concentration based upon 2021 guidance, the culture aliquots were returned to an incubator set to 37° C. using ambient air and agitated using orbital mixing for 60 minutes. […] Recovered reads were processed through an internal RNA-seq bioinformatics pipeline that includes the following steps: read quality and adapter trimming, surviving reads were assigned a genomic position in the reference P. aeruginosa genome PA01 using Kallisto (and read counts with dispersion estimates calculated), and differential expression analysis comparing each antibiotic treatment with the no-antibiotic control data set were conducted using Sleuth for each strain. […]

Row | Compound | differentially expressed transcripts in common between amikacin and gentamicin (Acinetobacter baumannii) [%] | number of differentially expressed transcripts (Acinetobacter baumannii; 0.5 hrs of exposure) | regulation of antibiotic specific response transcripts (Pseudomonas aeruginosa) | overlap of gentamicin response with amikacin response (Acinetobacter baumannii; 0.5 hrs of exposure)
1 | NCC[C@H](O)C(=O)N[C@@H]1C[C@H](N)[C@@H](O[C@H]2O[C@H](CN)[C@@H](O)[C@H](O)[C@H]2O)[C@H](O)[C@H]1O[C@H]1O[C@H](CO)[C@@H](O)[C@H](N)[C@H]1O [amikacin] | 93.2 | 1825 |  | 
2 | C[C@H]1COc2c(N3CCN(C)CC3)c(F)cc3c(=O)c(C(=O)O)cn1c23 [levofloxacin] |  | 1394 |  | 
3 | C[C@@H](O)[C@H]1C(=O)N2C(C(=O)O)=C(S[C@@H]3CN[C@H](C(=O)N(C)C)C3)[C@H](C)[C@H]12 [meropenem] |  |  | up regulation of five transcripts | 
4 | gentamicin | 93.2 | 6 | up regulation of eight transcripts | fully contained within the amikacin response
